Test results as given in patent US20210023065A1, “AMPHIPHILIC THIOL COMPOUNDS AND USES THEREOF” (THE REGENTS OF THE UNIVERSITY OF CALIFORNIA, priority 2018, published 2021).

What was measured:
Type in all cases: cell-based
GAP43 = target: T1, GAP43 (Homo sapiens, UniProt P17677); assay: Acyl resin-assisted capture detection of GAP43 palmitoylation in INCL lymphoblasts; conditions: 0.05 μmol/10^7 cells, 24 h
T1 construct: Western blot detection of endogenous GAP43 in acyl resin-assisted capture fractions; host or cells: INCL human lymphoblasts
T1 sequence (P17677 1-238): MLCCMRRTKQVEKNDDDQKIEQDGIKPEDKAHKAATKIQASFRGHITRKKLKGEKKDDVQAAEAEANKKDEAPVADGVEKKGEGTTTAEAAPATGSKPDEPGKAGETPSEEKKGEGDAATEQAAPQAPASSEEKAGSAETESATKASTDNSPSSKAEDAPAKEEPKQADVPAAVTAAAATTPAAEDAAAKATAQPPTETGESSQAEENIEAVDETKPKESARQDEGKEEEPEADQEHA
Description: INCL Lymphoblasts were adjusted to 1,000,000 cells/mL in 20 mL of OptiMem Media. Stock solutions of compounds were prepared in DMSO as before and diluted to the indicated final concentration in the cell suspension. […] Cells were pelleted by centrifugation at 1,000 rcf for 5 min and the pellet processed using a CAPTUREome S-Palmitoylated Protein Kit (Badrilla, UK) according to the manufacturer's protocol. Samples were resolved by electrophoresis using 4-20% SDS-polyacrylamide gels (Bio-Rad) under denaturing and reducing conditions. Proteins were then electrotransferred to a PVDF membrane (Bio-Rad). The membrane was blocked with 3% BSA and then subjected to immunoblot analysis using GAP-43 (B-5) Antibody (sc-17790) (Santa Cruz Biotechnology) and secondary antibody goat anti-mouse IgG HRP (ThermoFisher). Chemiluminescent detection was performed by using SuperSignal West Pico PLUS chemiluminescent substrate (ThermoFisher) according to the manufacturer's instructions.
Assays were performed in 3 biological replicates. Each replicate involved the analysis of 4 to 5 conditions side-by-side. Western blots were analyzed using ImageJ^1. The intensity of the protein band in each cleaved bound fraction (palmitoylated protein fraction) was normalized to the intensity of the corresponding input fraction (total protein fraction). The values within individual S 4 replicates were normalized to the control or vehicle condition and reported as means±SD. An unpaired t test was performed to determine the significance between means.

calnexin = target: T2, calnexin (Homo sapiens, UniProt P27824); assay: Acyl resin-assisted capture detection of calnexin palmitoylation in HeLa cells; conditions: 1.25 μmol/10^7 cells, relative to vehicle
T2 construct: we detected the palmitoylation levels of eight known palmitoylated proteins after treatment with 1; endogenous in cells; host or cells: HeLa
T2 sequence (P27824 21-592): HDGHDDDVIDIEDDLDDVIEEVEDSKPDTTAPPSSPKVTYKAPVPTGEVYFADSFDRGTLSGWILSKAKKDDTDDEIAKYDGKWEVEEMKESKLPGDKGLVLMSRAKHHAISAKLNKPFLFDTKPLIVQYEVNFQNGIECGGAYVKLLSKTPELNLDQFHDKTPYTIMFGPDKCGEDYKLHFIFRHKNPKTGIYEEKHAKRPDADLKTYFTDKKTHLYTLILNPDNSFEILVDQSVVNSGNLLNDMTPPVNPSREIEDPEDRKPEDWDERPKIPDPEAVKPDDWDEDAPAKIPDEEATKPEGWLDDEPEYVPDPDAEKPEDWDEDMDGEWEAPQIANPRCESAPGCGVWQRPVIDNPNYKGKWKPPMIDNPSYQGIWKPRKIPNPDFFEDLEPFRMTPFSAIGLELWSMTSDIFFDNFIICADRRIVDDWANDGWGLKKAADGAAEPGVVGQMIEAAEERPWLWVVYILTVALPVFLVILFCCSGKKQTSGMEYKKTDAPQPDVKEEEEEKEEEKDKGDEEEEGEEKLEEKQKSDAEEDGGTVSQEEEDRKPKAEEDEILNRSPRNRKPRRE
Description: (§1) HeLa cells were grown to confluency in 10 cm plates. Stock solutions of compounds were prepared in DMSO as before and diluted to the final indicated concentration in 5.5 mL of OptiMEM media before adding to cells. Cells were incubated at 37° C. for 20 min and then media removed and 3 mL of HBSS added to each plate. Cells were detached using a cell scraper, pelleted by centrifugation at 1,000 rcf for 5 min and the pellet processed using a CAPTUREome S-Palmitoylated Protein Kit (Badrilla, UK) according to the manufacturer's protocol. Samples were resolved by electrophoresis using 4-20% SDS-polyacrylamide gels (Bio-Rad) under denaturing and reducing conditions. Proteins were then electrotransferred to a PVDF membrane (Bio-Rad). […]
(§2) Assays were performed in 3 biological replicates. […] Western blots were analyzed using ImageJ^1. […]

CD44 = target: T3, CD44 (Homo sapiens, UniProt P16070); assay: Acyl resin-assisted capture detection of CD44 palmitoylation in HeLa cells; conditions: 1.25 μmol/10^7 cells, relative to vehicle
T3 construct: we detected the palmitoylation levels of eight known palmitoylated proteins after treatment with 1; endogenous in cells; host or cells: HeLa
Description: as §1, §2

EGFP-KRas4b = assay: Live-cell imaging of EGFP-KRas4b localization in HeLa cells; conditions: 1.25 μmol/10^7 cells
Description: Imaging was performed on an Axio Observer Z1 inverted microscope (Carl Zeiss Microscopy Gmb, Germany) with Yokogawa CSU-X1 spinning disk confocal unit using a 63×, 1.4 NA oil immersion or 20×, 0.8 NA objective to an ORCA-Flash4.0 V2 Digital CMOS camera (Hamamatsu, Japan). For live cell imaging, an incubation chamber with temperature and CO2 controllers (World Precision Instruments) was utilized. Fluorophores were excited with s diode laser (488 nm; 30 mW). Images were acquired using Zen Blue software (Carl Zeiss) and processed using Image J.^1 HeLa cells were plated at 40,000 cells/well in an 8-well Lab-Tek chamber slide (ThermoFisher) and allowed to adhere overnight. Cells were transfected with mEGFP-HRas or mEGFP-KRas4b using Lipofectamine 2000 (ThermoFisher) according to the manufacturer's protocol. 50 mM stocks of compounds 1 and 2 were prepared by dissolving the solid compound in DMSO containing 100 mM tris(2-S 3 carboxyethyl)phosphine hydrochloride (TCEP) as a preservative. From these stocks, a solution of 200 μM [1 or 2] (with 400 μM TCEP), or 400 μM TCEP was prepared in OptiMEM media. Before imaging, cells were exchanged into OptiMEM media. The diluted solutions were added to the indicated final concentration within individual wells of the chamber slide and cells imaged while maintaining 37° C., 5% CO2 in the incubation chamber. […]

T3 sequence (P16070 21-742): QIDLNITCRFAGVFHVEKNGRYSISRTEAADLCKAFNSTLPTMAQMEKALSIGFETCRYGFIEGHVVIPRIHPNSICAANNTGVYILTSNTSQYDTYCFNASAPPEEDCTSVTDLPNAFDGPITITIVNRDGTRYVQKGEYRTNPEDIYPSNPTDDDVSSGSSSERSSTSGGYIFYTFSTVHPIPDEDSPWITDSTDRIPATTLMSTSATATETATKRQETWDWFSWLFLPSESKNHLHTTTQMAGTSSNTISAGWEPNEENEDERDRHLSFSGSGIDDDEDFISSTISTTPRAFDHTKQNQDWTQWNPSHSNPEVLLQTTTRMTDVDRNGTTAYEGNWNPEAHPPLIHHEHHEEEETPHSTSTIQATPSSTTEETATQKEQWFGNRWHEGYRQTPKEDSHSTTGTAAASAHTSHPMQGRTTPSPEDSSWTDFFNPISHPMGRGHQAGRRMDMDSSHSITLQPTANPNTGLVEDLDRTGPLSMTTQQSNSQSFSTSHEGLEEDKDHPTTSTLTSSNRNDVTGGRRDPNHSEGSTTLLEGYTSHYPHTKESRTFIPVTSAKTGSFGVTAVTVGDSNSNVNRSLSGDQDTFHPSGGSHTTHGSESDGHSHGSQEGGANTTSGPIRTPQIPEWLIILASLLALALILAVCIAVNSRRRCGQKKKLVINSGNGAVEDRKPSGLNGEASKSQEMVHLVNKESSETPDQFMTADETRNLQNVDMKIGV

level of GAP43 palmitoylation (GAP43): significantly reduced
reduction of palmitoylation level of calnexin (calnexin): 19-40%
reduction of palmitoylation level of CD44 (CD44): > 80%
SMILES: CCCCCCCCNC(=O)[C@@H](N)CS [compound 1, H2N-L-Cys-Oct]
EGFP-KRas4b protein localization (fluorescence) (EGFP-KRas4b): no change in protein localization
